Laboratory results reported in ChEMBL document CHEMBL1150092, “Isolation and characterization of cytotoxic and antibacterial tetrasaccharide glycosides from Ipomoea stans” (1995).
Values after ≈ are worked out from the molar mass of the structure shown.

Tests used:
[1] = test system: P388; experiment: Cytotoxicity against mouse P388 cells; format: functional; conditions: read-out: ED50 (the source's name)
[2] = test system: Staphylococcus aureus; experiment: Antimicrobial activity against Staphylococcus aureus ATCC 6538; format: functional, organism-based
[3] = test system: Bacillus subtilis; experiment: Antimicrobial activity against Bacillus subtilis ATCC 6633; format: functional, organism-based

Molecule	EC50 [1]	MIC [2]	MIC [3]
CCCCC[C@H]1CCCCCCCCCC(=O)O[C@H]2[C@H](O)[C@@H](CO)O[C@@H](O[C@H]3[C@H](O1)O[C@H](C)[C@H](O)[C@@H]3O)[C@@H]2O[C@@H]1O[C@@H](C)[C@H](OC(=O)[C@@H](C)CC)[C@@H](O[C@@H]2O[C@@H](C)[C@H](O)[C@@H](O)[C@H]2O)[C@H]1OC(=O)[C@@H](C)CC [TRICOLORIN A]	2.2 µg/mL (≈ 2.15 µM)	–	–
NYSTATIN	–	8 µg/mL	16 µg/mL
